In article PMC4641600, “Novel Activities of Select NSAID R-Enantiomers against Rac1 and Cdc42 GTPases” (PLoS ONE, 2015):
Like-named read-outs stand apart in the source and are kept apart here.

How the values were obtained:
[1] = system: migration Rac1/Cdc42 dependent; assay: Migration IC50 (Table F); format: cell-based; details: ketorolac, calculated by GraphPad Prism5; read-out: IC50 migration Rac1/Cdc42 dependent (est)
Cdc42 [2] = target: T1, Cdc42 (Mus musculus, UniProt P60766); assay: GLISA, Swiss 3T3 cells; format: cell-based
T1 construct: endogenous in cells; host or cells: Swiss 3T3

[3] = IV dose of 30 mg; cited from earlier work
H-RasG12V = H-RasG12V (Homo sapiens, UniProt P01112, G12V); assay: Dose response, BODIPY-GTP binding; details: 10 nM to 100 µM
Experimental: (§1) For multiplex analyses of small GTPases, 4 μm diameter glutathione-beads (GSH-beads) distinguished by seven different intensities of red fluorescence were used according to our previously described protocols. The GST-GTPases included the following eight Ras-related small GTPases: Rab2 wt, Rab7 wt, Cdc42 wt, Cdc42Q61L activating mutant, H-Ras wt, H-RasG12V, Rac1 wt and Rac1Q61L activating mutant. Briefly, Prestwick Chemical Library® compounds were tested at 10 μM compound and 1% DMSO final concentrations. After a 10 min pre-incubation with the compound BODIPY- FL-GTP (100 nM final) was added to each well and bead associated fluorescence was measured. Sample analysis was conducted with a HyperCyt® high throughput flow cytometry platform. Flow cytometric light scatter at 488 nm and fluorescence emission at 530 +/− 20 nm (FL1) and 665 +/− 10 nm (FL8) were collected on a Cyan ADP flow cytometer (Beckman Coulter, Fullerton, CA). IDLQuery software was used to determine the compound activity in each well. Gating based on forward scatter (FS) and side scatter (SS) parameters was used to identify singlet bead populations. Gating based on FL8 emission distinguishes the beads coated with different proteins, and the median FL1 fluorescence per bead population were calculated. A compound was considered a “potential active” if the change in BODIPY-FL-GTP binding differed greater than 20% from that measured in DMSO treated controls.
(§2) Test compounds identified for follow-up after the primary screen were tested at dilutions ranging from 10 nM to 100 μM final concentration against individual GTPases in multiplex and single-plex assays. Compounds tested in dose response assays were serially diluted 1:3 a total of eight times from a starting concentration of 10 mM giving a 9-point dilution series in DMSO.
(§3) bConfirmatory screens entailed dose response assays conducted in a multiplex format with eight GTPases tested as for primary screen. BODIPY-GTP-binding activity was
(§4) measured in the presence of 10 nM to 100 µM of each of 11 test compounds (4 primary screen hits and 7 additional NSAIDs considered to have chemical similarity to GTPase
(§5) active compounds). GST-GFP coated beads served as a control to detect non-specific dissociation or denaturation caused by compound addition–none of the tested NSAIDs had
(§6) any effect on bead-GST-protein binding. EC50 values were determined using Prism to determine dose response fits as shown in Figure 1 of main text; fits have R2 > 0.9. Active
(§7) compounds based on same definition used as in primary screena. […]
(§8) ‡A well-characterized selective Cdc42 inhibitor served as a positive control.

Cdc42 wt = Cdc42 wt (Homo sapiens, UniProt P60953); assay: Dose response, BODIPY-GTP binding; details: 10 nM to 100 µM
Rab2 = Rab2 (Homo sapiens, UniProt P61019); assay: Dose response, BODIPY-GTP binding; details: 10 nM to 100 µM
[4] = system: migration Rac1/Cdc42 dependent; parameters: method as in ref 28 (a number printed in a supplementary file, which may have a reference list of its own: not looked up in the article's list); details: read-out: IC50 migration Rac1/Cdc42 dependent (est); cited from earlier work
human COX-1 = target: T2, human COX-1 (Homo sapiens, UniProt P23219); assay: Cyclooxygenase assay (CEREP), PGE2 formation; format: biochemical; details: recombinant enzyme, 4 μM arachidonic acid
T2 construct: purchased CEREP Laboratories (contract assay); host or cells: Sf-9

human COX-2 = target: T3, human COX-2 (Homo sapiens, UniProt P35354); assay: Cyclooxygenase assay (CEREP), PGE2 formation; format: biochemical; details: recombinant enzyme, 4 μM arachidonic acid
T3 construct: purchased CEREP Laboratories (contract assay); host or cells: Sf-9
T3 sequence (P35354 18-604): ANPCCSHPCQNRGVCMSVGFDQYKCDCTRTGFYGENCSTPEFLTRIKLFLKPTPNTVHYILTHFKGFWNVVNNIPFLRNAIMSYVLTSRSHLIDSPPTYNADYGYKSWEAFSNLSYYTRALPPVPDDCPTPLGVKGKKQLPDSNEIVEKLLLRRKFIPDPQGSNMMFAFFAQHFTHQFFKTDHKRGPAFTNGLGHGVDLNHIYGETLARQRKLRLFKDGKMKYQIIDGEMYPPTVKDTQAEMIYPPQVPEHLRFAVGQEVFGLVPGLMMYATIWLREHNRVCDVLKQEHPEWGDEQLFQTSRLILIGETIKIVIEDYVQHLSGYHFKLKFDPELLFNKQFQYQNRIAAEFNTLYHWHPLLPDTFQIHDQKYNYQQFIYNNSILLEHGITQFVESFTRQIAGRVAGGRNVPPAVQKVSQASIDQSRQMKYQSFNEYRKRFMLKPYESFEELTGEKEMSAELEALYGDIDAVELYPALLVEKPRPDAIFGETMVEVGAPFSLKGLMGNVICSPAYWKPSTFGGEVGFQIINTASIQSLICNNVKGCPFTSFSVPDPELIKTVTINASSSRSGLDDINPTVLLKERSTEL

H-Ras wt = H-Ras wt (Homo sapiens, UniProt P01112); assay: Dose response, BODIPY-GTP binding; details: 10 nM to 100 µM
Experimental: as §1, §2, §3, §4, §5, §6, §7

Rab7 = Rab7 (Homo sapiens, UniProt P51149); assay: Dose response, BODIPY-GTP binding; details: 10 nM to 100 µM
Cdc42 [5] = details: cited from earlier work
[6] = target: Cdc42Q61L activating mutant (Homo sapiens, UniProt P60953, Q61L); assay: Dose response, BODIPY-GTP binding; details: 10 nM to 100 µM; read-out: Cdc42 (act) EC50
Rac1 wt = Rac1 wt (Homo sapiens, UniProt P63000); assay: Dose response, BODIPY-GTP binding; details: 10 nM to 100 µM
[7] = target: Rac1Q61L activating mutant (Homo sapiens, UniProt P63000, Q61L); assay: Dose response, BODIPY-GTP binding; details: 10 nM to 100 µM
[8] = system: OvCa429 and OvCa433 cells; assay: Boyden chamber cell migration assay; format: cell-based, human; details: estimated from limited dose response data; read-out: IC50 migration Rac1/Cdc42 dependent (est)
Rac1 [9] = details: cited from earlier work
COX-2 = system: COX-2; parameters: method as in ref 15 (a number printed in a supplementary file, which may have a reference list of its own: not looked up in the article's list); details: ovine seminal vesicles or human whole blood; cited from earlier work
purified ovine COX-2 = system: purified ovine COX-2; parameters: method as in ref 14 (a number printed in a supplementary file, which may have a reference list of its own: not looked up in the article's list); details: purified ovine enzyme; cited from earlier work
Rac1 [10] = target: T4, Rac1 (Homo sapiens, UniProt P63000); assay: G-trap flow cytometric effector binding assay, HeLa cells; format: cell-based; details: ketorolac enantiomers, EGF stimulation, read-out: EC50 against Rac1
T4 construct: endogenous in cells; host or cells: HeLa

Cdc42 [11] = target: T5, Cdc42 (Homo sapiens, UniProt P60953); assay: as above; format: cell-based; details: ketorolac enantiomers, EGF stimulation, read-out: EC50 against Cdc42
T5 construct: endogenous in cells; host or cells: HeLa

Rac1 [12] = target: T6, Rac1 (Mus musculus, UniProt P63001); assay: GLISA, Swiss 3T3 cells; format: cell-based; details: for EGF-mediated Rac1 activation: 300 μM
T6 construct: endogenous in cells; host or cells: Swiss 3T3

purified ovine COX-1 = system: purified ovine COX-1; parameters: method as in ref 14 (a number printed in a supplementary file, which may have a reference list of its own: not looked up in the article's list); details: purified ovine enzyme; cited from earlier work
[13] = system: Rac1 and Tiam1 protein levels; assay: Immunoblot of protein levels; format: cell-based, human
Experimental: Cells were stimulated with EGF at a final concentration of 1 nM for 10 min. Cells were lysed in a RIPA buffer consisting of 50 mM Tris pH 7.4, 1% NP-40, 0.25% sodium deoxycholate, 150 mM NaCl, 1 mM EDTA, 1 mM PMSF, 1 mM sodium vanadate, 10 mM sodium fluoride, 1 μg/mL each of pepstatin, aprotinin and leupeptin, 10 mM sodium pyrophosphate and 10 mM beta-glycerophosphate.
N = 3. See also Figure D in S1 File for time dependent loss of Rac1 membrane localization. N = 3 (B) Quantification of image intensity using Image J of 3 representative confocal images as shown in panel (A) containing 20–30 cells/field normalized to actin and untreated controls. (C) Western blot analyses of lysates from cells treated with 300 μM compound as indicated for 24 h as compared to untreated controls. […] Blots were probed for Tiam1 (200 kDa), GAPDH (37 kDa), Rac1 (20 kDa), as a loading control. (D) Quantification of image intensity using Image J. Each marker was normalized to GAPDH and untreated controls. N = 3.

[14] = system: Rab2 wt, Rab7 wt, Cdc42 wt, Cdc42Q61L, H-Ras wt, H-RasG12V, Rac1 wt and Rac1Q61L; assay: Primary multiplex screen, BODIPY-FL-GTP binding on bead-bound GTPases (flow cytometry)
OvCa429 cells = details: 300 μM, relative to 6-MNA
[15] = system: Rac1 membrane localization; assay: Rac1 immunolocalization, OvCa433 cells; format: cell-based, human
[16] = system: Tiam1 membrane localization; assay: Tiam1 immunolocalization, OvCa433 cells; format: cell-based, human
Experimental: OvCa433 were plated on coverslips, treated with 300 μM NSAIDs for 1 h, fixed with 3% paraformaldehyde and immunostained for Rac1 or Tiam1. Actin was visualized with rhodamine phalloidin from Invitrogen (F432). Cells were imaged on a Zeiss LSM510 using a 63x objective and quantified using Image J.
Rac1 and Tiam1 antibodies were confirmed in our hands to recognize single protein species of the predicted molecular weight by immunoblot.

Ras-related GTPases = assay: Confirmatory dose response assays on eight Ras-related GTPases; format: binding
Experimental: as §1, §2, §3, §4, §5, §6, §7, §8

COX-1 = details: IC50 values not calculated; thromboxane B2, collagen-stimulated human platelets; cited from earlier work
OvCa433 cells = details: 0-300 µM, 48 h
[17] = immunofluorescence quantified using ImageJ

Chain of Rab2 (P61019 whole entry, species assumed): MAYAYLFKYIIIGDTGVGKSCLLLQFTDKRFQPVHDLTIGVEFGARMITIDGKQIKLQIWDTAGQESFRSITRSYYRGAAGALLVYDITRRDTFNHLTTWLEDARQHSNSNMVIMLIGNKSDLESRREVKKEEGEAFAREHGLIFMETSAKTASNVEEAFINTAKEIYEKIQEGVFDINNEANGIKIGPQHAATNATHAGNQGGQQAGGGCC
T1 sequence (P60766 whole entry): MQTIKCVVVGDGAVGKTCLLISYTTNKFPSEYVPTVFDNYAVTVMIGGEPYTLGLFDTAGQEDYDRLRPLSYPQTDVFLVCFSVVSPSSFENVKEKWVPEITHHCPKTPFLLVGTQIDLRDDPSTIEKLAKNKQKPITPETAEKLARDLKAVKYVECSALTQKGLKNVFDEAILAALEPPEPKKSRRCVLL
T2 sequence (P23219 24-599): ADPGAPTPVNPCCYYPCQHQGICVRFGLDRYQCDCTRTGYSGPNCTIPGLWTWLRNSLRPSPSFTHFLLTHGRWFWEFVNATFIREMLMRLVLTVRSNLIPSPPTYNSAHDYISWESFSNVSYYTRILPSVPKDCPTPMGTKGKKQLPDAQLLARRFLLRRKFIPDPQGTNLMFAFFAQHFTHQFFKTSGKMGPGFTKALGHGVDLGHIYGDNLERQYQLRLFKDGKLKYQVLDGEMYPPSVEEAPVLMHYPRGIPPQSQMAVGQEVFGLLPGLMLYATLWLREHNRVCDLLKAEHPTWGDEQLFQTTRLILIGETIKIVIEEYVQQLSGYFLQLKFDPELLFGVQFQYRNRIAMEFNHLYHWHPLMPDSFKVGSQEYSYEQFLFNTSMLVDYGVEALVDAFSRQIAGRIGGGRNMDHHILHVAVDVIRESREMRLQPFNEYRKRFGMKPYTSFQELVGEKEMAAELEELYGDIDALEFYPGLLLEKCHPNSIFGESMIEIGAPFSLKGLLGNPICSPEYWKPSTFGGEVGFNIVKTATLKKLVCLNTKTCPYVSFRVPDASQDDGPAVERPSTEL
Chain of Rab7 (P51149 whole entry, species assumed): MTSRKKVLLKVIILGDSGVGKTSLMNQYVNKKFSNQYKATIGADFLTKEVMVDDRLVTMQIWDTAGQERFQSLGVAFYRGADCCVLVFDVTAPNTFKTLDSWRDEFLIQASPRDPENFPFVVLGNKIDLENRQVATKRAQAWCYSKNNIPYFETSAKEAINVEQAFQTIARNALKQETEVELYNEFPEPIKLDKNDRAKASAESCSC
Chain of Cdc42Q61L activating mutant (P60953 whole entry Q61L): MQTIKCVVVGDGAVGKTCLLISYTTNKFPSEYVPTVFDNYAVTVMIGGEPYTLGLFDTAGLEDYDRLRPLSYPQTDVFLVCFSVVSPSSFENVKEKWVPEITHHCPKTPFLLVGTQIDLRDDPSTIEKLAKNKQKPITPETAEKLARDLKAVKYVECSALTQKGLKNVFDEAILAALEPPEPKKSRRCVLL
Chain of Cdc42 wt (P60953 whole entry): as the sequence (P60766 whole entry) above
T5 sequence (P60953 whole entry): as the sequence (P60766 whole entry) above

SMILES: O=C(c1ccccc1)c1ccc2n1CCC2C(=O)O (racemic) [racemic ketorolac, ketorolac]
- IC50 [1]: 34000 nM
- effect on Cdc42 relative to R-ketorolac (Cdc42 [2]; at 10 μM): approximately half the effect
- Cmax [3]: 13.7 µM

SMILES: COc1ccc(C2CC(c3ccccc3)=NN2c2ccc(S(N)(=O)=O)cc2)cc1 (centres unmarked) [CID2950007/ML141]
- H-Ras (act) EC50 (H-RasG12V): inactive
- EC50 (Cdc42 wt): 2600 nM
- Rab2 EC50 (Rab2): inactive
- IC50 [4]: ~10000 nM
- IC50 (human COX-1): 1800 nM
- IC50 (human COX-2): 580 nM
- H-Ras wt EC50 (H-Ras wt): inactive
- Rab7 EC50 (Rab7): inactive
- IC50 (Cdc42 [5]): 2100 to 2600 nM
- EC50 [6]: 5400 nM
- Rac1 wt EC50 (Rac1 wt): inactive
- Rac1 (act) EC50 [7]: inactive

SMILES: CCN(CC)CCCC(C)Nc1nc(C)cc(Nc2ccc3nc(C)cc(N)c3c2)n1 (centres unmarked) [NSC23766]
- IC50 [8]: < 30000 nM

SMILES: O=C(c1ccccc1)c1ccc2n1CC[C@H]2C(=O)O [R-ketorolac]
- COX-2 IC50 Previously Published (COX-2): Not sig
- COX-2 IC50 Previously Published (purified ovine COX-2): Not sig
- EC50 (Rac1 [10]): 574 nM
- IC50 [1]: 7000 nM
- EC50 (Cdc42 [11]): 1070 nM
- dose of maximal inhibition of Cdc42 activation (Cdc42 [2]; 1 h pretreatment, EGF stimulation): 10 µM
- IC50 (human COX-1): 990 nM
- IC50 (human COX-2): > 100000 nM
- dose of maximal inhibitory activity against Rac1 (Rac1 [12]; 1 h preincubation, EGF stimulation): 50 µM
- COX-1 IC50 Previously Published (purified ovine COX-1): Not sig

SMILES: COc1ccc2cc([C@@H](C)C(=O)O)ccc2c1 [R-naproxen]
- H-Ras (act) EC50 (H-RasG12V): inactive
- total Rac1 or Tiam1 protein levels ([13]; 300 μM, 24 h, immunoblot): did not alter
- Rac protein expression ([13]; immunoblot analysis): No change
- primary screen outcome ([14]; 10 μM compound): positive and hit
- Primary Screen Hit ([14]; single dose 10 µM, change in BODIPY-GTP binding on any one GTPase): Active
- Rab2 EC50 (Rab2): inactive
- invadopodia formation (OvCa429 cells): inhibited
- EGF-mediated Rac1 activation (Rac1 [12]; 15 min pretreatment): significantly inhibited
- EGF-mediated Rac1 activation (Rac1 [12]; 1 h pretreatment): reduced activation to basal unstimulated levels
- inhibition at 300 µM (Rac1 [12]; Swiss-3T3, at 300 µM): 100%
- H-Ras wt EC50 (H-Ras wt): inactive
- Rac1 membrane localization ([15]; 300 μM): substantially reduced
- Rac PM Localiz. [15, 17]: 34%
- Rab7 EC50 (Rab7): inactive
- Tiam1 membrane localization ([16]; 300 μM): substantially reduced
- Tiam1 GEF PM localiz. [16, 17]: 32%
- activity against the GTPases in confirmatory dose response assays (words) (Ras-related GTPases; 10 nM to 100 µM): varying activity levels
- EC50 (Ras-related GTPases; additional confirmatory dose response assays, different conditions): 3000 to 18000 nM
- COX-1 Previously Published (COX-1): R>S
- cytotoxicity (OvCa433 cells): not cytotoxic
